Test results from patent publication US11661421B2, “Indolizine compounds, preparation method and use thereof” (HAIHE BIOPHARMA CO., LTD., priority 2018, dated 2023).
pIC50: −log10 of the molar value.

Molecular target: T1, PRC2 complex (EZH2 Y641F/EED/SUZ12/RbAp48/AEBP2) histone methyltransferase (Homo sapiens, UniProt Q15910, Y641F)
T1 construct: purchased Cisbio
Test: PRC2 complex (EZH2 Y641F) activity assay, HTRF
Assay type: biochemical
Conditions: H3(1-50) K27me1 substrate, SAM, 4 h at room temperature, read-out: IC50 (EZH2_Y641F)
Text: PRC2 Complex (Ezh2y641f) Activity Assay of the Compounds:
Test Method: Homogeneous Time-Resolved Fluorescence (HTRF)
Materials: PRC2 complex (EZH2 Y641F/EED/SUZ12/RbAp48/AEBP2) histone methyltransferase used in the test was purchased from Cisbio; substrate H3(1-50) K27me1 was a product of GL Biochem; methyl donor S-(5′-Adenosyl)-L-methionine chloride dihydrochloride (SAM) was purchased from Sigma-aldrich; Eu-labeled H3K27me3, Streptavidin-XL665 and the buffer used in the test were purchased from Cisbio.
Experiment method: PRC2 complex (EZH2 Y641F/EED/SUZ12/RbAp48/AEBP2), H3(1-50)me1 substrate, methyl donor SAM and the test compound were added to each well to reach a total of 10 μL reaction system and reacted in dark at room temperature for 4h. 5 μL of Eu-labeled H3K27 Me3 antibody and 5 μL of Streptavidin-XL665 were added to each well, mixed uniformly, and incubated at room temperature for 1 h. The fluorescence values at 620 nm and 665 nm were measured with a multi-label microplate analysis system (PerkinElmer Envision), and the HTRF signal ratio (665 nm/620 nm) was calculated for each well. The IC50 values of the compounds were calculated using SoftMax Pro 5.4.1 software.

T1 sequence (Q15910 whole entry Y641F): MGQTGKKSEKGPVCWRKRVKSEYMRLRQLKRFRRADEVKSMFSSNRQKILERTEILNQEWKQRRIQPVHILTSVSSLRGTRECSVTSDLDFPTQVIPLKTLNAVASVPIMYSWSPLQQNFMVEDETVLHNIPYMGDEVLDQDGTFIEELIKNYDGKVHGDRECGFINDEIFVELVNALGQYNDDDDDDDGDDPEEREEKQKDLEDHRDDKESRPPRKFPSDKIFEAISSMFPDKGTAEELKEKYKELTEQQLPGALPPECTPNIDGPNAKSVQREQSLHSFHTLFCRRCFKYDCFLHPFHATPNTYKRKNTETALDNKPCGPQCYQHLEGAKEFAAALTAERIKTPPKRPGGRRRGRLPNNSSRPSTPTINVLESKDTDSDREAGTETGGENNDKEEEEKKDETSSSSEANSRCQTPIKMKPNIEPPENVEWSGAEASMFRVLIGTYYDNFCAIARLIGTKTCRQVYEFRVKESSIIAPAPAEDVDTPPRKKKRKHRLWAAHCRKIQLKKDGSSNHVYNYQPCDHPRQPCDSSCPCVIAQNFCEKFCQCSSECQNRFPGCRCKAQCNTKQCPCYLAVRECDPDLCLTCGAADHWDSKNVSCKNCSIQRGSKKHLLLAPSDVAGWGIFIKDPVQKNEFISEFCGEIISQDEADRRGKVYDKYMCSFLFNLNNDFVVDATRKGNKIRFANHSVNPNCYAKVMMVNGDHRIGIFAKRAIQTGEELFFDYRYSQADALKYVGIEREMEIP
T1 sequence (O75530 whole entry partner): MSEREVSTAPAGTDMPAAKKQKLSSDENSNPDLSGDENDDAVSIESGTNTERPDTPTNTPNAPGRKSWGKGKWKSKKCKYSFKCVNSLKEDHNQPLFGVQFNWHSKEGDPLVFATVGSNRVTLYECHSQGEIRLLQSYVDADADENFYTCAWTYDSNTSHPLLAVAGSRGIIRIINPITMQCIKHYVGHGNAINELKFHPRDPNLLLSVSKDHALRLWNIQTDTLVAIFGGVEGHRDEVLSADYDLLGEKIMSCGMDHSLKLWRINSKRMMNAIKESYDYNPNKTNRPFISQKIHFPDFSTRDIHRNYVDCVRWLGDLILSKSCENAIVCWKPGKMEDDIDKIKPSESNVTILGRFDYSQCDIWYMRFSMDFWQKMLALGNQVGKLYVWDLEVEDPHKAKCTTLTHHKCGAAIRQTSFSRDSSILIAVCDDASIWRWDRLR
T1 sequence (Q15022 whole entry partner): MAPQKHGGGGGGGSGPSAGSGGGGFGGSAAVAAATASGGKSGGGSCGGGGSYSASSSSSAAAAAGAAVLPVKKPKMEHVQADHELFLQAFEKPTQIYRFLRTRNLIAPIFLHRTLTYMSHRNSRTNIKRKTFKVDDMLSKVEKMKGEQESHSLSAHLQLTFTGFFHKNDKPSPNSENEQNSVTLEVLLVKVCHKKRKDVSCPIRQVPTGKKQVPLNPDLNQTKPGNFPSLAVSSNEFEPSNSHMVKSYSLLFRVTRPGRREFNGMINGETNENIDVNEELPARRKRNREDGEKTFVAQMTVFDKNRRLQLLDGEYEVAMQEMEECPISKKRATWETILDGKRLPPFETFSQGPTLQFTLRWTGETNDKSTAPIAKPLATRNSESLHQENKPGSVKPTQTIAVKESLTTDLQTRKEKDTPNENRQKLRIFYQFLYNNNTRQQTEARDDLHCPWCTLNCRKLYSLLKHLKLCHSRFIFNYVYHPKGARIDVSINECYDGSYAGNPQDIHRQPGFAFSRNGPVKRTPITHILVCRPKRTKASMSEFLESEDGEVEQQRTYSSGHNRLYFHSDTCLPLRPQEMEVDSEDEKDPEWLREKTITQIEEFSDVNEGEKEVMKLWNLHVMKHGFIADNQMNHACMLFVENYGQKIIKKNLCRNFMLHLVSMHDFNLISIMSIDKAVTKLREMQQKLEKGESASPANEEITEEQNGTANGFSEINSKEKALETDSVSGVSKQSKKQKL
T1 sequence (Q09028 whole entry partner): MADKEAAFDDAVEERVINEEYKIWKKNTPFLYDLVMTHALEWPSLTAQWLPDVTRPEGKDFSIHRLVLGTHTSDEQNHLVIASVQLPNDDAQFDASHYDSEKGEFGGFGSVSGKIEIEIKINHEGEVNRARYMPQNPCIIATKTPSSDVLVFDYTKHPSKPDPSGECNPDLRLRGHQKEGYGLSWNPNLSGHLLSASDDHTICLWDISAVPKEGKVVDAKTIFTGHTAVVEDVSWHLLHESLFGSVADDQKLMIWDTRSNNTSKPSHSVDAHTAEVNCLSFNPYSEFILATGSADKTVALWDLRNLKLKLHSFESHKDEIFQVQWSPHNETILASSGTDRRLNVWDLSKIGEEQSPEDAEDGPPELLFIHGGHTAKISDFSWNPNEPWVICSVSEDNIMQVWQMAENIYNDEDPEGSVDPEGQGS
T1 sequence (Q6ZN18 whole entry partner): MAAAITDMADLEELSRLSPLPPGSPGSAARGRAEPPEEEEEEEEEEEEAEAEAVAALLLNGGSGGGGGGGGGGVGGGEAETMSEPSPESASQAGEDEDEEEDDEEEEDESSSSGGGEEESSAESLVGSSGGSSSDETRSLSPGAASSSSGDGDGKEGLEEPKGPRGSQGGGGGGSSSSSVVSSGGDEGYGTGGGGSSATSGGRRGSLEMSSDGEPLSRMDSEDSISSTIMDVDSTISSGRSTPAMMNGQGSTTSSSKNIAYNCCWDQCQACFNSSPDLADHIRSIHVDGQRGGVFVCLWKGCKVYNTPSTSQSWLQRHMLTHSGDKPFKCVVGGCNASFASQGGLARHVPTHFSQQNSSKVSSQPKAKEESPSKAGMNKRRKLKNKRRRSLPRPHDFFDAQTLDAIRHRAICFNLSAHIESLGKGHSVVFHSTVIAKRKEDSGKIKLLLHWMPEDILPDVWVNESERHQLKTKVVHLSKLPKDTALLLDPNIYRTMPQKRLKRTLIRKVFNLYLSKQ

Row | SMILES | pIC50
1 | CC=C(c1c(C)c(C(=O)NCc2c(OC)cc(C)[nH]c2=O)cc2c(-c3ccnc(N(C)C)c3)ccn12)N1CCOCC1 [compound 1, 1-(2-(dimethylamino)pyridin-4-yl)-N-((4-methoxy-6-methyl-2-oxo-1,2-dihydropyridin-3-yl)methyl)-6-methyl-5-(1-morpholinylpropyl-1-en-1-yl)indolizine-7-formamide] | 7.94
2 | C=C(c1c(C)c(C(=O)NCc2c(OC)cc(C)[nH]c2=O)cc2c(-c3ccc(C)nn3)ccn12)N1CCN(CC(F)(F)F)CC1 [compound 3, N-((4-methoxy-6-methyl-2-oxo-1,2-dihydropyridin-3-yl)methyl)-6-methyl-1-(6-methylpyridazin-3-yl)-5-(1-(4-(2,2,2-trifluoroethyl)piperazin-1-yl)vinyl)indolizine-7-carboxamide] | 8.31
3 | COc1cc(C)[nH]c(=O)c1CNC(=O)c1cc2c(-c3ccnc(N(C)C)c3)ccn2c(C(C)=C2CCN(CC(F)(F)F)CC2)c1C [compound 4, 1-(2-(dimethylamino)pyridin-4-yl)-N-((4-methoxy-6-methyl-2-oxo-1,2-dihydropyridine-3-yl)methyl)-6-methyl-5-(1-(1-(2,2,2-trifluoroethyl)piperidin-4-alkenylene)ethyl)indolizine-7-formamide] | 8.05
4 | CNc1cc(-c2ccn3c(C(C)=C4CCN(CC(F)(F)F)CC4)c(C)c(C(=O)NCc4c(OC)cc(C)[nH]c4=O)cc23)ccn1 [compound 5, N-((4-methoxy-6-methyl-2-oxo-1,2-dihydropyridin-3-yl)methyl)-6-methyl-1-(2-(methylamino)pyridin-4-yl)-5-(1-(1-(2,2,2-trifluoroethyl)piperidin-4-alkenylene)ethyl)indolizine-7-carboxamide] | 8.17
